ChEMBL document CHEMBL4476888, “Tosylacetate based compounds and derivatives thereof as phgdh inhibitors” (2018)
pIC50: −log10 of the molar value.

Target: T1, D-3-phosphoglycerate dehydrogenase (Homo sapiens, UniProt O43175)
T1 sequence (O43175 whole entry): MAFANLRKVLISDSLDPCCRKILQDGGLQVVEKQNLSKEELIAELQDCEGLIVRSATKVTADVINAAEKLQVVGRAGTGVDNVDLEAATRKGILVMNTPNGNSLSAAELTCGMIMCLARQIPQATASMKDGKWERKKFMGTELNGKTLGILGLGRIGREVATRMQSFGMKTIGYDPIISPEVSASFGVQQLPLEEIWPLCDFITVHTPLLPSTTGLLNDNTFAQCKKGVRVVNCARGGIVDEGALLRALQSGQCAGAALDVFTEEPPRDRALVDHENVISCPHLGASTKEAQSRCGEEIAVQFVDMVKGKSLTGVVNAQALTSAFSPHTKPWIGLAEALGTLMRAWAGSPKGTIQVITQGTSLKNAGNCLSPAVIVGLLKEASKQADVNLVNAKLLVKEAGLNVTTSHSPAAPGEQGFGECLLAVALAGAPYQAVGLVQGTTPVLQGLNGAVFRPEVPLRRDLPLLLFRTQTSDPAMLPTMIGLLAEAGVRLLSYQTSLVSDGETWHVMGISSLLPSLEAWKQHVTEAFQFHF
Experiment: Inhibition of N-terminal HIS-tagged and TEV cleavage site containing full length PHGDH (unknown origin) expressed in Escherichia coli assessed as reduction in conversion of 3-Phosphoglycerate and NAD to 3-Phosphohydroxypyruvate and NADH using 250 uM NAD and 500 uM 3-PG incubated for 240 mins by fluorescence based assay

Going from Cc1cc(Cl)c2cc(C(=O)N[C@H](C)c3ccc(S(=O)(=O)CC(=O)OCCNC(=O)OC(C)(C)C)cc3)n(C)c2c1 to COCCOC(=O)CS(=O)(=O)c1ccc([C@@H](CO)NC(=O)c2cc3c(Cl)cc(C)cc3n2C)cc1, the pIC50 rises from 6.15 to 7.21 (1.06 log units).

First: Cc1cc(Cl)c2cc(C(=O)N[C@H](CO)c3ccc(S(=O)(=O)CC(=O)OCC4(F)COC4)cc3)n(C)c2c1
Second: COC(=O)CS(=O)(=O)c1ccc([C@@H](C)NC(=O)c2cc3c(Cl)cc(C)cc3n2C)nc1
The pIC50 of the first is 1.62 log units higher: 7.57 for the first, 5.95 for the second.

Going from Cc1cc2c(cc(C(=O)N[C@@H](C)c3ccc(S(=O)(=O)CC(=O)O)cc3)n2C)c(Cl)c1Cl to Cc1cc(Cl)c2cc(C(=O)N[C@H](C)c3ccc(S(=O)(=O)C(C)(C)C(=O)OC(C)(C)C)cc3)n(C)c2c1, the pIC50 falls from 6.81 to 5.30 (1.51 log units).
